These results are taken from patent US11185528B2, “ALDA-1 treatment and prevention of pulmonary disease” (University of South Florida, priority 2018, dated 2021).

In assay [1] the target is T1, ALDH2 (Homo sapiens, UniProt P05091).
T1 construct: Cells obtained were human microvascular endothelial cells (HMVECs); endogenous in cells; host or cells: HMVEC / HMVEC-L (human lung microvascular endothelial cells)
T1 sequence (P05091 18-517): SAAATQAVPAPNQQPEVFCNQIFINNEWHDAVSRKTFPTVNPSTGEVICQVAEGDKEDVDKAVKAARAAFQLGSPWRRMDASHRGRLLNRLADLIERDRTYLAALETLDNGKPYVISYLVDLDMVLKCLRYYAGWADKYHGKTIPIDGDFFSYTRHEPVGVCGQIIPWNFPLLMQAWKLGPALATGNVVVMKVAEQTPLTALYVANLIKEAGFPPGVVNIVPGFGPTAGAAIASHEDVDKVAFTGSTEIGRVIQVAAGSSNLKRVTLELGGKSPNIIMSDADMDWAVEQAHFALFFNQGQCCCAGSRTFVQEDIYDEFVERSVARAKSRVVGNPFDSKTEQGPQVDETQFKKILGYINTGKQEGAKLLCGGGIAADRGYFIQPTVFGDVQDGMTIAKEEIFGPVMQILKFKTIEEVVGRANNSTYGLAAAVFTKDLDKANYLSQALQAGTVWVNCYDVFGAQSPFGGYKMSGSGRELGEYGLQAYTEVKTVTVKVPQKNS
Kind of assay: ALDH2 enzymatic activity assay (340 nm) on mitochondrial lysate of HMVEC. The assay is classed as cell-based. The protocol: (§1) Cells obtained were human microvascular endothelial cells (HMVECs). Cell culture medium was EBM-2 containing 10% FBS plus antibiotics. Assays were MitoSOX, JC1, Histology, Western blot, and ALDH2 activity. Antibodies used were mouse anti-ALDH2 antibody, Cytochrome C, and Beclin (cell signaling).
(§2) HMVECs were seeded and, after reaching confluence, treated with DMSO and Alda-1. Cells were then exposed to normoxia or hyperoxia at different time points. After 24, 48, and 72 hours, cells were collected for mitochondrial analyses.
(§3) HMVEC's were preserved in EGM-2 MV media (Lonza, Wakersville, Md.) and supplemented with FBS (25 ml), Hydrocortisone (0.2 ml), hFGF-B (2.0 ml), VEGF (0.5 ml), R3 IGF-1 (0.5 ml), Ascorbic acid (0.5 ml), hEGF (0.5 ml), GA-1000 (0.5 ml) at 37° C. in a 5% carbon dioxide-humidified incubator to maintain sufficient cell growth. The cultured cells were validated for confluence (around 70%) and exposed to hyperoxia for 48 hours with and without Alda-1.
The enzymatic activity of ALDH2 was measured by transformation of acetaldehyde to acetic acid (Chen et al., 2008). The HMVEC-L cells were cultured as mentioned above, followed by 300 μl of buffer (10 mM DTT, 100 mM Tris-HCl pH 8.0, 20% glycerol, 1% Triton X-100) and centrifuged at 55000 g for 30 minutes at 4° C. […] The specificity of enzyme reaction was expressed as nmol NADH/minute/mg protein.

Assay [2] relates to human microvascular endothelial cells (HMVEC). Kind of assay: JC-1 staining, mitochondrial membrane potential. The assay is classed as cell-based. Here is the method:
as §1, §2
HMVEC-L cells were maintained in a EGM-2 (Lonza) media supplemented with FBS (25 ml), Hydrocortisone (0.2 ml), hFGF-B (2.0 ml), VEGF (0.5 ml), R3 IGF-1 (0.5 ml), Ascorbic acid (0.5 ml), hEGF (0.5 ml), GA-1000 (0.5 ml) at 37° C. in a 5% carbon dioxide humidified incubator to maintain a sufficient cell growth. The HMVEC-L cells were plated at density of 1×10,000 cells in a cell view dish with glass bottom (Thomas scientific). When cells attained 70% confluency, they were exposed to hyperoxia for 48 hours with Alda-1 and without Alda-1. Following exposure to hyperoxia, the HMVEC-L cells were washed by HBSS solution (without Ca+ and Mg+) (Gibco). […] The live cell imaging was conducted using fluorescence microscopy (Olympus). The green and red images were captured in fluorescence and images were quantified by image J by red to green ratio.

The test system of assay [3] is cytochrome C. Kind of assay: Western blot of whole cell lysate, cytochrome C. The class given is cell-based, human. Here is the method: as §1, §2
The HMVEC-L cells were cultured and after reaching confluence (70%), were exposed to hyperoxia with or without Alda-1 for 48 hours. The concentration was determined by the proOX p100 sensor (Biospherix). After hyperoxia, the cell pellets were collected by centrifugation and the cell pellets were suspended in lysis buffer (20 mM Tris HCL, pH7.4, 150 mM Nacl, 0.5% Triton-x 100) and the supernatant was collected after centrifugation at high speed (14000 g) for 15 minutes at 4° C. The amount of protein was calculated by BCA assay kit (Pierce, Rockford, Ill.). […] The bands were developed by pierce EC1 (Thermo Fischer scientific) and films with protein bands were scanned and analyzed densitometrically by NIH ImageJ software. The ratio of protein to loading control was taken and analyzed in percentages.

For assay [4], the system named is Bax. The assay can be described thus: Western blot of whole cell lysate, Bax. The assay is classed as cell-based, human. Particulars: HMVEC pretreated with 20 μM, hyperoxia 48 hours, normalized to β-actin. Here is the method: (§4) The HMVEC-L cells were cultured and after reaching confluence (70%), were exposed to hyperoxia with or without Alda-1 for 48 hours. The concentration was determined by the proOX p100 sensor (Biospherix). After hyperoxia, the cell pellets were collected by centrifugation and the cell pellets were suspended in lysis buffer (20 mM Tris HCL, pH7.4, 150 mM Nacl, 0.5% Triton-x 100) and the supernatant was collected after centrifugation at high speed (14000 g) for 15 minutes at 4° C. The amount of protein was calculated by BCA assay kit (Pierce, Rockford, Ill.). Equivalent amount of protein (15 μg) subjected to SDS-PAGE using between 4-20% tris-glycine gel (Bio-rad) after which electro transfer with PVDF membrane was performed, followed by blocking in 5% skim milk with washes with TBST. The membranes were treated with primary and secondary antibodies. The bands were developed by pierce EC1 (Thermo Fischer scientific) and films with protein bands were scanned and analyzed densitometrically by NIH ImageJ software. The ratio of protein to loading control was taken and analyzed in percentages.

Assay [5] has as its system ALDH2. The assay can be described thus: Western blot of whole cell lysate, ALDH2 expression. The assay is classed as cell-based, human. The following applies: HMVEC pretreated with 20 μM, hyperoxia 48 hours, normalized to β-actin. Here is the method:
as §4

Assay [6] deals with human microvascular endothelial cells (HMVECs). Kind of assay: MitoSOX mitochondrial ROS production. The assay is classed as cell-based. Particulars: Example 1. The protocol: as §1, §2
Assay [7] concerns 4HNE. Kind of assay: Oxidative stress assay, 4HNE adduct competitive ELISA on whole cell lysate. The assay is classed as cell-based, human. The following applies: HMVEC pretreated with 20 μM, hyperoxia 48 hours. Here is the method:
as §3
The samples of whole cell lysate (50 μg) were seeded in each well. Oxidative stress was measured by an oxiselect 4HNE adduct competitive ELISA kit (Cell Biolabs), according to the instructions of kit.
In general terms: ELISA stands for enzyme-linked immunosorbent assay.

Assay [8] relates to hyperoxia-induced acute lung injury. Kind of assay: Example 4: mice exposed to hyperoxia 48 hours, lung lysate immunoblot and BAL fluid analysis. The class given is in vivo, C57BL/6 mice. Particulars: 20 mM via alzet pumps. The protocol: C57BL/6 mice were exposed to hyperoxia for 48 hours with DMSO (Control) and Alda-1 (20 mM) via alzet pumps on the dorsal side of mice. The mice were divided into four groups: normoxia+DMSO (room air), normoxia+Alda-1, hyperoxia+DMSO, and hyperoxia+Alda-1. The lungs were harvested and the bronchoalveolar lavage (BAL) fluid was collected and analyzed by immunoblot and cytokine levels.
A general note: Immunoblotting shows a protein as a band on a membrane.

Assay [9] relates to hyperoxia-induced damage. Kind of assay: Example 5: mice exposed to hyperoxia 48 hours, lung lysate immunoblot. The following applies: 20 μM via Alzet pumps. The assay is classed as in vivo, C57BL/6 mice. The protocol: C57BL/6 mice were pretreated with DMSO (control) and 20 μM Alda-1 (administered via Alzet pumps), then exposed to hyperoxia for 48 hours. The mice were divided into three groups: Room air, hyperoxia (48 hour)+DMSO, and hyperoxia (48 hour)+Alda-1. The lung tissues were harvested, and lysates evaluated by immunoblot analysis.

Assay [10] concerns acute lung injury. The assay can be described thus: Example 6: mice exposed to 100% oxygen 48 hours, BAL fluid, Diff Kwik staining, H&E staining, western blot. The assay is classed as in vivo, C57BL/6 mice. Particulars: 20 μM via osmotic pumps. The protocol: The C57BL/6 mice were embedded with osmotic pumps and continuously injected with either DMSO or Alda-1 (20 μM), then they were exposed to 100% oxygen 48 hours. The lung samples, as well as Bronchial Alveolar Lavage Fluid, were collected for the evaluation of infiltration of cytokines, inflammation, autophagy, and apoptosis by Diff Kwik staining, H&E staining, and western blot.

Setting [11] is: HMVECs, Example 1, hyperoxia, 24 and 48 hours.

In the case of `O=C(NCc1ccc2c(c1)OCO2)c1c(Cl)cccc1Cl` [Alda-1, N-(1,3-Benzodioxol-5-ylmethyl)-2,6-dichlorobenzamid], the “increase in ALDH2 activity compared to hyperoxia without pretreatment” value in assay [1] (HMVEC mitochondrial extract, 20 μM, hyperoxia 48 hours) turned out to be 45%. Besides, the ALDH2 activity entry in assay [1] (HMVECs, Example 1, during both normoxia and hyperoxia) is “elevated”. Besides, in assay [2] (HMVEC, 20 μM, hyperoxia 48 hours), the “increase in mitochondrial membrane potential (JC-1 red to green ratio) compared to hyperoxia without treatment” value came out at 1.62 fold. The mitochondrial membrane potential result in [2] (setting [11]) is recorded as “rescued”. For the same molecule, in assay [3] (HMVEC pretreated with 20 μM, hyperoxia 48 hours, normalized to β-actin), the “decrease in cytochrome C compared to hyperoxia without pretreatment” value came out at 64%. For the same molecule, the “Cytochrome C release” value in assay [3] (setting [11]) was “decreased”. Moreover, in assay [4], the “decrease in Bax compared to hyperoxia without pretreatment” value is reported as 25%. In addition, the “effect on ALDH2 expression in hyperoxia” value in [5] is recorded as “no effect”. Besides, the “mitochondrial ROS production” value in assay [6] is on record as “suppressed”. Besides, the “decrease in 4HNE accumulation compared to untreated HMVEC exposed to hyperoxia” value in assay [7] was 26%. In addition, in assay [8], the “Drp1 level in lung lysate vs DMSO” value is recorded as “decreased levels”, the “OPA1 level in lung lysate vs DMSO” value was “decreased levels” and the “infiltration of macrophages in BAL fluid vs DMSO” value was “less infiltration”. For the same molecule, in assay [9], the “PTEN-induced kinase 1 (PINK1) level vs hyperoxic controls” value is listed as “decrease”, the “mitofusin 1 (MFN1) level in lung lysates vs hyperoxia only” value is “decreased levels” and the “mitofusin 2 (MFN2) level in lung lysates vs hyperoxia only” value is “decreased levels”. Also, in assay [10], the “LC3B (western blot)” value is reported as “reduced”, the “NF-κB-p65 (western blot)” value is listed as “reduced”, the autophagy result is listed as “decrease” and the “cytochrome C release (western blot)” value is “reduced”. In assay [10], the “cytokine and neutrophil infiltration and inflammation, DMSO mice vs Alda-1 mice” value is “more cytokine and neutrophil infiltration and elevated inflammation than mice treated with Alda-1”; the inflammation result is on record as “decrease”; the oxidative stress result was “decrease”.
